Reference: paper PMC5585923, “Isolation and characterization of the compounds responsible for the antimutagenic activity of Combretum microphyllum (Combretaceae) leaf extracts” (BMC Complementary and Alternative Medicine, 2017)
In brackets after ≈: the same amount, converted by molar mass. Where two headings read alike, the source gives them in different places.

What was measured:
[1] = system: Salmonella typhimurium TA102; test: Ames test, antimutagenicity against MMC, TA102; settings: for antimutagenic activity: TA102, against MMC
Experimental: (§3) Briefly, 100 μl of bacterial stock were incubated in 20 ml of Oxoid Nutrient broth for 16 h at 37 °C on a rotary shaker. Of this overnight culture, 0.1 ml was added to 2.0 ml of top agar (containing histidine-biotin) together with 0.1 ml test solution and 0.5 ml phosphate buffer. […] To determine antimutagenicity, the test solution contained 50 μl test sample and 50 μl positive control). The top agar mixture was poured over the surface of a minimal agar plate and incubated for 48 h at 37 °C. After incubation the numbers of revertant colonies (mutants) in each plate were counted.
(§4) Where T is the number of revertants per plate in the presence of mutagen and the test solution and M is the number of revertants per plate in the positive control. All cultures were prepared in triplicate (except for the solvent control where five replicates were used). Absence of toxicity was confirmed when a background layer of bacterial growth, which should normally be present was observed.

[2] = system: Salmonella typhimurium TA100; test: Ames test, antimutagenicity against 4-NQO, TA100; settings: for antimutagenic activity: TA100, against 4-NQO
Experimental: as §3, §4

[3] = DPPH free radical scavenging (antioxidant) assay; settings: tested 100 to 0.048 μg/ml
Experimental: The DPPH free radical scavenging spectrophotometric method described by Mensor et al. and modified by Aderogba et al. was used to evaluate the quantitative antioxidant activity. Reactions were carried out in 96-well microtitre plates and each of the isolated compounds was tested at varying concentrations ranging from 100 to 0.048 μg/ml. Blank solutions were prepared with methanol only while the negative control was DPPH solution (20 μl plus 50 μl methanol). Test sample solution contained compounds serially diluted in methanol. Methanol served as a blank for the microplate reader and the decrease in absorbance was measured at 515 nm. Percentage antioxidant activity (AA%) values were calculated from the absorbance values using the formula: AA%=100−Abssample–Absblank×100/Abscontrol
(Abs sample is the absorbance of the sample, Abs blank is the absorbance of the blank and Abs control is the absorbance of the control). L-ascorbic acid (vitamin C) was used as a positive control (antioxidant agent). The EC50 value, defined as the concentration of the sample leading to 50% reduction of the initial DPPH concentration, was calculated from the separate linear regression of plots of the mean percentage of the antioxidant activity against concentration of the test extracts obtained from the three replicate assays. The results are expressed as EC50 values obtained from the regression plots.

[4] = system: Salmonella typhimurium TA100; test: Ames test, mutagenicity, TA100
[5] = system: Salmonella typhimurium TA98; test: Ames test, mutagenicity, TA98
[6] = system: Salmonella typhimurium TA98; test: Ames test, antimutagenicity against 4-NQO, TA98; settings: for antimutagenic activity: TA98, against 4-NQO
Experimental: as §3, §4

MTT cytotoxicity assay = assay type: cell-based; settings: human; for viability at 2 days, 200 μg/ml: 200 μg/ml (highest concentration tested), read-out: percentage cell viability
Experimental: (§1) Briefly, the cells were maintained in minimal essential medium supplemented with 10% foetal calf serum and sodium pyruvate. Cell suspensions were prepared from confluent monolayer cultures and plated at a density of 5 × 10^4 cells/ml and a total of 200 μl of the cell suspension was plated in a 96-well culture plate. After incubation at 37 °C in a 5% CO2 incubator, the cells were treated with different concentrations of the isolated compounds ranging from 10 to 200 μg/ml and incubated for 2 days. Doxorubicin chloride was used as the positive control. The wells were washed with PBS and fresh medium (200 μl) was then added to the wells. MTT (Sigma) dissolved in PBS (30 μl) was added to each well and incubated for 4 h at 37 °C. The medium was removed and MTT formazan crystals were dissolved in 50 μl DMSO. The amount of MTT reduction was measured immediately by detecting the absorbance using a microplate reader (BioTek Synergy, Analytical and Diagnostic Products, South Africa) at a wavelength of 570 nm. The percentage of cell viability was calculated using the formula below: %cell viability=Mean Absorbance of sample/Mean Absorbance of control×100
(§2) The intensity of the MTT formazan produced by living metabolically active cells is directly proportional to the number of live cells present (Mosmann, [14]).

[7] = system: Ehrlich ascites carcinoma (EAC) cell line; parameters: method as in Ramesh and colleagues (2012); settings: EAC cells, 100 μg/ml, ref Ramesh and colleagues (2012); cited from earlier work
[8] = system: Dalton's lymphoma (DLA) cell line; parameters: method as in Ramesh and colleagues (2012); settings: DLA cells, 100 μg/ml, ref Ramesh and colleagues (2012); cited from earlier work
[9] = parameters: method as in earlier work; settings: 100 μg/ml, cell-free system, ref 22 Manna et al.; cited from earlier work
[10] = system: human hepatocellular carcinoma (C3A) cells; test: MTT cytotoxicity assay; assay type: cell-based; settings: Homo sapiens; C3A cells, 200 μg/ml; read-out: inhibition of cell growth
Experimental: as §1, §2

[11] = C3A hepatocellular carcinoma cells, C3A cells, MTT, 2 days, 10 to 200 μg/ml, read-out: LC50

SMILES	antimutagenic activity [1]	antimutagenic activity [2]	EC50, DPPH free radical scavenging [3] [µg/mL]	Mean number of revertant colonies per plate (±SD) ([4]; TA100, 5 μg/ml)	Mean number of revertant colonies per plate (±SD) ([4]; TA100, 50 μg/ml)	Mean number of revertant colonies per plate (±SD) ([4]; TA100, 500 μg/ml)	Mean number of revertant colonies per plate (±SD) ([5]; TA98, 5 μg/ml)	Mean number of revertant colonies per plate (±SD) ([5]; TA98, 50 μg/ml)	Mean number of revertant colonies per plate (±SD) ([5]; TA98, 500 μg/ml)	antimutagenic activity [6]	CC50 at 2 days (MTT cytotoxicity assay; [11]) [µg/mL]	CC50 at 2 days (MTT cytotoxicity assay)	other results
CCCCCCCCCCCCCCCCCCCCCCCCO [n-Tetracosanol, n-tetracosanol]	least active compound	least active compound	>100	127.00 ± 7.21	121.33 ± 2.52	125.00 ± 8.18	23.67 ± 4.51	35.67 ± 9.71	30.00 ± 7.81	least active compound	> 200		viability at 2 days, 200 μg/ml (MTT cytotoxicity assay; C3A hepatocellular carcinoma cells, C3A cells): 59.7 ± 7.23%
O=C1O[C@H]([C@@H](O)CO)C(O)=C1O [Ascorbic acid, L-ascorbic acid, reference compound]			0.51 ± 0.08 (≈ 2.9 µM)										
CC1(C)CC[C@]2(C(=O)O)CC[C@]3(C)C(=CC[C@@H]4[C@@]5(C)C[C@@H](O)[C@H](O)[C@@](C)(CO)[C@@H]5CC[C@]43C)[C@@H]2C1 [Arjunolic acid, arjunolic acid]	most active	most active	6.25 ± 0.29 (≈ 12.8 µM)	107.33 ± 1.15	104.33 ± 2.52	109.00 ± 8.72	26.67 ± 1.15	28.33 ± 3.78	33.00 ± 2.65	most active	106 ± 5.11		inhibition of cell growth [7]: up to 70%; inhibition at 500 µg/mL ([1]; Salmonella enterica, TYPHIMURIUM, read-out: percentage antimutagenicity (inhibition of mutagenic effect of MMC), TA102, 500 μg/ml (highest concentration tested), MMC 1 μg/ml): 44 ± 0.18%; percentage antimutagenicity (inhibition of mutagenic effect of MMC) ([1]; TA102, 500 μg/ml (highest concentration tested), MMC 1 μg/ml): ≤ 43.78 ± 0.18%; inhibition of cell growth [8]: up to 70%; inhibition at 500 µg/mL ([2]; Salmonella enterica, TYPHIMURIUM, read-out: percentage antimutagenicity (inhibition of mutagenic effect of 4-NQO), TA100, 500 μg/ml (highest concentration tested), 4-NQO 1 μg/ml): 36 ± 1.5%; percentage antimutagenicity (inhibition of mutagenic effect of 4-NQO) ([2]; TA100, 500 μg/ml (highest concentration tested), 4-NQO 1 μg/ml): ≤ 35.84 ± 1.45%; DPPH free radical scavenging activity [9]: up to 80%; inhibition at 500 µg/mL ([6]; Salmonella enterica, TYPHIMURIUM, read-out: percentage antimutagenicity (inhibition of mutagenic effect of 4-NQO), TA98, 500 μg/ml (highest concentration tested), 4-NQO 2 μg/ml): 42 ± 9.6%; inhibition at 200 µg/mL [10]: 66%
COc1cccc2c1C(=O)c1c(O)c3c(c(O)c1C2=O)C[C@@](O)(C(=O)CO)C[C@@H]3O[C@H]1C[C@H](N)[C@H](O)[C@H](C)O1 [Doxorubicin, Doxorubicin chloride, reference compound]												640 ± 32 nM	
CCCCCCCCCCCCCCCCCCCC(=O)O [Eicosanoic acid, eicosanoic acid]			>100	112.33 ± 2.89	102.67 ± 4.73	108.67 ± 5.03	28.67 ± 5.51	29.33 ± 4.04	27.77 ± 1.53			> 200 µg/mL	viability at 2 days, 200 μg/ml (MTT cytotoxicity assay; C3A cells): 50.1 ± 6.21%
